# Experiments:
# [1] = target: T1, octopamine receptor (OctR) (Drosophila melanogaster, UniProt Q9VCZ3); experiment: Transient OctR expression in CHO G-alpha-16 cells, Fluo-4, Discovery microscope; type: cell-based
# T1 construct: various amounts of untagged OctR-pcDNA3.1 DNA were transfected into CHO cells; expressed in transfected cells; host or cells: CHO stably expressing G-alpha-16, transient transfection
# T1 sequence (Q9VCZ3 1-508): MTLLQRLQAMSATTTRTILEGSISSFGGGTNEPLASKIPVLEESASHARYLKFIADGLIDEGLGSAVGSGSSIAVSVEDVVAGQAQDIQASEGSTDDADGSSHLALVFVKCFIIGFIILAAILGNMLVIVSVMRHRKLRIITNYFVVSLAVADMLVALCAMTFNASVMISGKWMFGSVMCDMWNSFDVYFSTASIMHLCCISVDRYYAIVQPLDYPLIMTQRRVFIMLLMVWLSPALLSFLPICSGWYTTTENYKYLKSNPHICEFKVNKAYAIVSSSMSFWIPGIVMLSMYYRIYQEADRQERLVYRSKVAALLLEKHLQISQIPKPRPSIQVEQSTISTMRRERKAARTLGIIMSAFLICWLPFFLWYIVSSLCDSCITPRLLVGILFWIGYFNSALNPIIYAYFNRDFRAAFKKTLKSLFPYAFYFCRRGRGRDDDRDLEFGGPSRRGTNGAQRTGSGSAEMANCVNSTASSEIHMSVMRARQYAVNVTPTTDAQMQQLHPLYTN
# Procedure: The untagged and GFP-tagged versions of OctR, which natively couples to cAMP, were transiently expressed in CHO cells stably expressing the G-alpha-16 promiscuous G protein, which signals through calcium. This allowed activation of the receptor to be measured by calcium-sensing fluorescent dyes.
# In FIG. 55A, various amounts of untagged OctR-pcDNA3.1 DNA were transfected into CHO cells (6-well dish, 300,000 cells/well) and tested for function at 48 hours using Fluo-4 dye on the Discovery microscope. The graph shown below represents an average of all single-cell readings from cells expressing the cyan vector. It is assumed that the majority of cells expressing the cyan vector also express OctR.
# FIG. 55. Calcium-sensing Fluo-4 fluorescent dye response to octopamine or tyramine stimulation in CHO cells stably expressing G-alpha-16 and transiently expressing increasing amounts of untagged or GFP-tagged OctR-pcDNA3.1. Cells cotransfected with pAmCyan vector as a marker of transfected cells were stimulated with a maximal dose of octopamine or sub-maximal dose of tyramine. Well averages of single-cell response measured on the Discovery microscope are graphed above.
# [2] = Stability of octopamine solutions; type: physicochemical
# Procedure: Octopamine was tested comparing freshly diluted versus a 24-hour solution (data not shown). The response obtained with the 24-hour solution stored at room temperature was identical to that of the freshly diluted solution. We have repeatedly […]
# [3] = target: T2, octopamine receptor (OctR, CG6919 dmOa2) (Drosophila melanogaster, UniProt Q9VCZ3); experiment: OctR clone 55 FLIPR Fluo-4 calcium assay; type: cell-based
# T2 construct: expressed in transfected cells; host or cells: CHO stably expressing G-alpha-16
# Procedure: FIG. 62. Cells were plated at 10K/well in 384 well plates and allowed to incubate overnight at […]. The cells were assayed 18-24 hours after seeding. Media was removed and cells were dye loaded for 60 minutes with 2 μM Fluo-4. After 1 hour, dye was removed and 20 μl of buffer added to the plate and placed into FLIPR. The 1st addition was antagonist dose response curves and the 2nd addition was agonist dose response curves. Antagonists were challenged with 100 nM Octopamine. In addition, these compounds were tested in the parental cell line CHO-Galpha16.
# Cells were plated at 10,000 cells/well in 50 μl into 384-well black TC plates and allowed to incubate overnight at 37° C./5% CO2. The cells were assayed 18-24 hours after seeding. Culture medium was removed by flicking and cells were dye loaded for 60 minutes with 20 μl of 2 μM Fluo-4 in assay buffer plus probenecid at 25° C. After one hour dye was removed by flicking and 20 μL of assay buffer was added, wait 5 min prior to placing into the FLIPR and run using a two-addition protocol. The first addition (20 ul, 2×) was 0.5% DMSO final in assay buffer. The second addition (20 ul, 3×) was either assay buffer or 100 nM octopamine final.
# [4] = Ionomycin stability in solution; type: physicochemical; conditions: 5 uM in assay buffer, SK activation
# Procedure: An experiment was conducted (data not shown) to examine the stability of ionomycin in solution. Ionomycin was diluted to 5 uM in assay buffer, loaded into a compound plate and compared with freshly-prepared ionomycin for SK activation the following day. The freshly-prepared ionomycin yielded a statistically significant 6% increase in assay window size, so our recommendation is for freshly-prepared ionomycin.
# DmSK = target: T3, DmSK (Drosophila melanogaster, UniProt Q7KVW5); experiment: DmSK CHO membrane potential dye assay, ionomycin activation; type: cell-based
# T3 construct: The resulting construct contains the SK CDS downstream of the CMV promoter; expressed in transfected cells; host or cells: CHO-K1 (pool 3 / clone SK3 and subclones)
# Procedure: Basic test protocol: Cells were plated at 5×10^4/well into 96-well poly-D-lysine assay plates (BD Biosciences) and placed at 37 C/5% CO2 the day before testing. Culture medium was aspirated and replaced with 0.4× blue membrane potential dye (Molecular Devices Corporation) in assay buffer and incubated for 1 hour at RT. The assay was run by reading baseline fluorescence for 20 sec, and reading an additional 60 or 180 sec after activation.
# This assay was developed using the Molecular Devices blue membrane potential dye at 0.4× the normal concentration. It is important to vortex the dye upon hydration and rinse the vial repeatedly to ensure that all the dye has been recovered and that it is in solution. The dye can be stored during the day at 4°. Dye loading is carried out by flipping the culture medium from the 96-well poly-D-lysine plate, gently tapping the plate on Kimwipes to remove excess medium, replacing it with 180 ul 0.4× dye per well, and incubating in the dark at room temperature (25° C.-28° C.) for 3-5 hr. The assay plate is now ready for testing which comprises a 20 ul (10×) first addition and 50 ul (5×) second addition. 50 uM propafenone [final] is used as a control inhibitor. The assay is read for three minutes after activation to allow maximum window development relative to controls. […]
# ShaI = target: T4, ShaI (Drosophila melanogaster, UniProt P17971); experiment: ShaI electrophysiology (patch clamp); type: cell-based
# T4 construct: expressed in transfected cells; host or cells: CHO
# T4 sequence (P17971 1-490 isoform P17971-1): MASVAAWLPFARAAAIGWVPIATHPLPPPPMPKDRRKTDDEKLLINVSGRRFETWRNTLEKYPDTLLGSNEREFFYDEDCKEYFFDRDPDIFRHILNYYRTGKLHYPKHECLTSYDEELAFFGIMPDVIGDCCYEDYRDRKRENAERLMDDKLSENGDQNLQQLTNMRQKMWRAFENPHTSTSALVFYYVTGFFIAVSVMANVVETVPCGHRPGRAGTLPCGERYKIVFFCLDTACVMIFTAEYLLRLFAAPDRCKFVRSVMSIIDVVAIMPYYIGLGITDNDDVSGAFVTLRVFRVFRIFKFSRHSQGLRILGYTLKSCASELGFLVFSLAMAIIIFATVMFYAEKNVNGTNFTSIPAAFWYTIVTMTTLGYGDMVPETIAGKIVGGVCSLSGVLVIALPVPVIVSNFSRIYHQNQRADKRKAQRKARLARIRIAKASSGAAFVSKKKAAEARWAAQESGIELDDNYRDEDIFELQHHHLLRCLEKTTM
# Procedure: Data were acquired and analyzed using pClamp software (version 9.0.1.16). The whole-cell configuration of the patch-clamp technique was used to voltage clamp cells at room temperature (22-25° C.). Pipettes were pulled from borosilicate glass capillaries (#8250, Garner Glass, Claremont, Calif.) using a DMZ Universal Puller (Zeitz, Munich, Germany) and had resistances of 1-2 MOhm when filled with pipette solution and measured in bath solution. The liquid junction potential between bath and pipette solution was always compensated before the formation of a gigaohm seal.
# Membrane current was measured under whole-cell clamp, sampled at 2 kHz and filtered at 1 kHz by an Axoclamp 200B (Axon Instruments). Capacitance currents were electronically compensated at the beginning of each experiment. P/4 leak correction was applied.
# To study ShaI currents on CHO cells, cells were held at −70 mV and a family of 500 ms test voltage pulses was applied starting from −70 to +70 mV, or +100 mV, in 10 mV increments. The amplitude, as measured for the current-voltage relationship, was defined as the maximal current at a given membrane potential.
# ShaI_delN = target: T5, ShaI_delN (Drosophila melanogaster, UniProt P17971); experiment: ShaI_delN clonal lines, FLIPR blue membrane potential dye, KCl depolarization; type: cell-based; conditions: 4-5 mM, dye loaded 1 hr at RT
# T5 construct: expressed in transfected cells; host or cells: CHO
# Procedure: ShaI_DelN C10 and C15 were tested for function on the FLIPR using the Molecular Devices blue membrane potential dye. The cells were seeded at 60K cells/well in 96-well Costar plates in complete media and assayed for function at 24 hrs. Depolarization with 15-60 mM KCl caused a 2-2.8 fold higher activity in the clonal line than the pcDNA control cell line (FIG. 5). Clone 10 had slightly higher activity than clone 15.
# FIG. 5: ShaI_DelN clones tested on FLIPR with KCl depolarization. We also tested some known K-channel blockers on channel activity on the FLIPR (FIG. 6). […] The ShaI_delN clonal cell lines lost their GFP expression and assay window with cell passage. At passage 12, only 10-15% of the cell population was GFP positive.
# (§1) The effects of barium (Ba2+) on ShaI_delN function were tested. Barium is known to inhibit some open rectifier and inward rectifier K-channel activities. Cells were dye loaded in the presence of BaCl2 for 1 hr at RT and assayed on the FLIPR using KCl depolarization for channel activation.
# CHO_pcDNA3 control cells = experiment: CHO_pcDNA3 control cells, FLIPR KCl depolarization; type: cell-based, Chinese hamster; conditions: 4-5 mM, dye loaded 1 hr at RT
# Procedure: as §1
# DmSK Potassium Channel = target: T6, DmSK Potassium Channel (Drosophila melanogaster, UniProt Q7KVW5); experiment: Xenopus laevis oocyte two-electrode voltage clamp of DmSK; type: cell-based; conditions: intracellular injection of 100 mM, oocytes clamped at +5 mV
# T6 construct: expressed in transfected cells; host or cells: Xenopus laevis oocytes injected with in vitro transcribed RNA
# Procedure: Purpose: To utilize the oocyte two-electrode voltage clamp expression system to assay functional expression of the […] Drosophila melanogaster small-conductance calcium-activated potassium channel (SK) within Xenopus laevis oocytes.
# Stage V-VI oocytes were injected with 50 nl of in vitro transcribed DmSK RNA (1 ug/ul) using a Drummond Nanoject Injector (pCRII-SK2+4D plasmid linearized with HindIII and transcribed using the Ambion T7 mMessage mMachine transcription kit).
# Channel expression was assayed using two-electrode voltage clamp (borosilicate glass 1.5 mm×1.12 mm filled with 3M KCl) through a Turbo Tec 10C Amplifier (NPI Instruments) connected to an Apple PowerMac G3 via an ADInstruments PowerLab system.
# Injected oocytes with resting potentials greater than −30 mV were clamped at +5 mV and perfused with ND-96 bath solution (96 mM NaCl, 2 mM KCl, 1 mM MgCl2, 0.3 mM CaCl2, 5 mM HEPES at pH 7.5 and 230 mOsm) Currents measured were filtered at 2 kHz and with a 50/60 Hz HumBug noise eliminator.
# SK channels were activated with intracellular injection of 100 mM […] (9.2 nl) using the nanoject while clamped. Measured currents were compared to published results of SK activation within oocytes (FIG. 85).
# [5] = system: calcium-activated potassium currents; conditions: DUM neurons from cockroaches; cited from earlier work
compound,measurement,setting,value
NCCc1ccc(O)cc1 [tyramine],efficacy relative to octopamine,[1]; preliminary data and published reports,only slightly less efficacious
same,activation of octopamine receptor,[1]; sub-maximal dose,activated by tyramine
NCC(O)c1ccc(O)cc1 (centres unmarked) [octopamine],activity after repeated freeze-thaw,[2]; 10 mM DMSO stocks,no reduction in activity
same,response of 24-hour solution versus freshly diluted solution,"[2]; stored at room temperature, data not shown",identical
same,80% octopamine control concentration,"[3]; 20-plate DMSO test run, 2nd addition",100 nM
same,rank order of potency (agonists),"[3]; clone 55, same as published cAMP data",naphazoline>octopamine>amitraz>clonidine>tolazoline
C[C@H](CCC(=O)O)C[C@H](C)C[C@H](C)C(=O)/C=C(\O)[C@H](C)C[C@H](C)C/C=C/[C@@H](C)[C@@H](O)[C@@H](C)[C@@H](O)C[C@@H]1CC[C@@](C)([C@H]2CC[C@@](C)([C@@H](C)O)O2)O1 [ionomycin],"increase in assay window size, freshly-prepared versus solution of the day before",[4],6%
same,EC50,DmSK,0.2 µM
same,concentration above which no increase in response window,"DmSK; SK3, relative to controls",800 nM
[Ba+2] [Ba2+],ShaI outward currents,ShaI,not inhibited
same,ShaI_delN channel activity with KCl depolarization,ShaI_delN,without any significant reduction
same,fluorescent responses with KCl depolarization,CHO_pcDNA3 control cells,significantly reduced fluorescent responses
[Cl][Cd][Cl] [cadmium chloride],activation of DmSK outward currents,DmSK Potassium Channel,outward currents activated by at least three 9.2 nl injections
"CSSC [DMDS, di-methyl disulfide]",effect on calcium-activated potassium currents,[5],inhibits calcium-activated potassium currents

# From patent publication US9029080B2, “Screening assay for insecticides” (priority 2008, dated 2015)
